Patent publication US12180193B2, “Accelerating fibrosarcoma protein degrading compounds and associated methods of use” (Arvinas Operations, Inc., priority 2020, dated 2024)
Where two headings read alike, the source gives them in different places.

Tests used:
BRAF V600E = target: T1, BRAF V600E (Homo sapiens, UniProt P15056, V600E); test: Cellular assay of target protein degradation, T-Rex 293 cells stably transfected with HA-BRAF_V600E (HA immunofluorescence, high content imaging); assay type: cell-based
T1 construct: expressed in transfected cells
T1 sequence (P15056 whole entry V600E): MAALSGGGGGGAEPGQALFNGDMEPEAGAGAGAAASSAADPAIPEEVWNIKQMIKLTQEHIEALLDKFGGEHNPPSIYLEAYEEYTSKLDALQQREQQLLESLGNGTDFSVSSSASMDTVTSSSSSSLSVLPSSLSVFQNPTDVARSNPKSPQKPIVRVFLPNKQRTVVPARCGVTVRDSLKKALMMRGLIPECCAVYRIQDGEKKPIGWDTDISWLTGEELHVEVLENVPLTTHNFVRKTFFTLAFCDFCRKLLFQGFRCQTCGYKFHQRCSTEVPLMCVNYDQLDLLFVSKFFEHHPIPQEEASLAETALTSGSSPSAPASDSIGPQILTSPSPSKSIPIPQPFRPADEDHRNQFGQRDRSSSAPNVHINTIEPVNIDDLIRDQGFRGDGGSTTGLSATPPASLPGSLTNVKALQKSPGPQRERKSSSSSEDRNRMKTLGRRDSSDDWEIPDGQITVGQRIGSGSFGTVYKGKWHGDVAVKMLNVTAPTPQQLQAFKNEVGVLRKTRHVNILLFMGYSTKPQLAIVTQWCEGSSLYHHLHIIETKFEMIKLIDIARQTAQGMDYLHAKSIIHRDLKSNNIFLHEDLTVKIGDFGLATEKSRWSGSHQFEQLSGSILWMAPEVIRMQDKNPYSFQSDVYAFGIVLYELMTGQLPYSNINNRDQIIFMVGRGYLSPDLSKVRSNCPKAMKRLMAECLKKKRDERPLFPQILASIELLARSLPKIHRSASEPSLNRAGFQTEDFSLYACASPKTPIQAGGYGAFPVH
Summary of the method: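 Read-out is anti-HA immunofluorescence quantified by high-content imaging, giving half-maximal degradation concentration (DC50) and maximum degradation (Dmax, percent of control). Cells expressed the construct under 1 ng/mL doxycycline and received compound (1 μM to 0.1 nM final, 0.1% DMSO) for 24 h at 37 °C.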

BRAF G466V = target: T2, BRAF G466V (Homo sapiens, UniProt P15056, G466V); test: Cellular assay of target protein degradation, T-Rex 293 cells stably transfected with HA-BRAF G466V (HA immunofluorescence, high content imaging); assay type: cell-based
T2 construct: expressed in transfected cells
T2 sequence (P15056 whole entry G466V): as the sequence (P15056 whole entry V600E) above, with G466V, E600V counted along it
Summary of the method: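 First, stably transfected T-Rex 293 cells were plated with 0.75 ng/mL doxycycline and grown for 24 hours. Next, compound (final 30 nM to 3 pM, 0.1% DMSO) was added for another 24 hours at 37° C. Finally, cells were fixed, stained for HA and imaged.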

[1] = maximum degradation observed, T-Rex 293 HA-BRAF V600E
[2] = maximum degradation observed, T-Rex 293 HA-BRAF G466V
[3] = half maximal degradation, T-Rex 293 HA-BRAF V600E; read-out: BRaf V600E DC50
[4] = half maximal degradation, T-Rex 293 HA-BRAF G466V; read-out: BRaf G466V DC50

| Compound | Dmax (BRAF V600E; [1]) | DC50 (BRAF V600E; read-out: BRaf V600E DC50; half maximal degradation, T-Rex 293 HA-BRAF V600E) | Dmax (BRAF G466V; [2]) | DC50 (BRAF G466V; read-out: BRaf G466V DC50; half maximal degradation, T-Rex 293 HA-BRAF G466V) | DC50 (BRAF V600E; [3]) | DC50 (BRAF G466V; [4]) |
| --- | --- | --- | --- | --- | --- | --- |
| CC(C)(C1CCN(c2ccc(-c3cnc4[nH]cc(C(=O)c5c(F)ccc(NS(=O)(=O)N6CC[C@@H](F)C6)c5F)c4c3)cc2)CC1)N1CC2(CN(c3ccc4c(c3)CN(C3CCC(=O)NC3=O)C4=O)C2)C1 (stereo partly drawn) [Compound 60, (3R)-N-[3-(5-{4-[4-(2-{6-[2-(2,6-dioxopiperidin-3-yl)-1-oxo-2,3-dihydro-1H-isoindol-5-yl]-2,6-diazaspiro[3.3]heptan-2-yl}propan-2-yl)piperidin-1-yl]phenyl}-1H-pyrrolo[2,3-b]pyridine-3-carbonyl)-2,4-difluorophenyl]-3-fluoropyrrolidine-1-sulfonamide] | 35 to 70% | 5 to 50 nM | > 70% | 1 to 10 nM |  |  |
| O=C1CCC(N2Cc3cc(C(O)CCN4CC5(C4)CN(c4ccc(-c6cnc7[nH]cc(C(=O)c8c(F)ccc(NS(=O)(=O)N9CC[C@@H](F)C9)c8F)c7c6)cc4)C5)ccc3C2=O)C(=O)N1 (stereo partly drawn) [Compound 61, (3R)-N-(3-{5-[4-(6-{3-[2-(2,6-dioxopiperidin-3-yl)-1-oxo-2,3-dihydro-1H-isoindol-5-yl]-3-hydroxypropyl}-2,6-diazaspiro[3.3]heptan-2-yl)phenyl]-1H-pyrrolo[2,3-b]pyridine-3-carbonyl}-2,4-difluorophenyl)-3-fluoropyrrolidine-1-sulfonamide] | 35 to 70% |  | 35 to 70% |  | 5 to 50 nM | 1 to 10 nM |
| O=C1CC[C@H](N2Cc3cc(CCCCN4CC5(C4)CN(c4ccc(-c6cnc7[nH]cc(C(=O)c8c(F)ccc(NS(=O)(=O)N9CC[C@@H](F)C9)c8F)c7c6)cc4)C5)ccc3C2=O)C(=O)N1 [Compound 62, (3R)-N-[3-(5-{4-[6-(4-{2-[(3S)-2,6-dioxopiperidin-3-yl]-1-oxo-2,3-dihydro-1H-isoindol-5-yl}butyl)-2,6-diazaspiro[3.3]heptan-2-yl]phenyl}-1H-pyrrolo[2,3-b]pyridine-3-carbonyl)-2,4-difluorophenyl]-3-fluoropyrrolidine-1-sulfonamide] | 35 to 70% |  | 35 to 70% |  | < 5 nM | < 1 nM |
| O=C1CC[C@@H](N2Cc3cc(CCCCN4CC5(C4)CN(c4ccc(-c6cnc7[nH]cc(C(=O)c8c(F)ccc(NS(=O)(=O)N9CC[C@@H](F)C9)c8F)c7c6)cc4)C5)ccc3C2=O)C(=O)N1 [Compound 63, (3R)-N-[3-(5-{4-[6-(4-{2-[(3R)-2,6-dioxopiperidin-3-yl]-1-oxo-2,3-dihydro-1H-isoindol-5-yl}butyl)-2,6-diazaspiro[3.3]heptan-2-yl]phenyl}-1H-pyrrolo[2,3-b]pyridine-3-carbonyl)-2,4-difluorophenyl]-3-fluoropyrrolidine-1-sulfonamide] |  |  | > 70% |  | > 500 nM | 1 to 10 nM |
| O=C1CCC(N2Cc3cc(CCCCCN4CCN(c5ccc(-c6cnc7[nH]cc(C(=O)c8c(F)ccc(NS(=O)(=O)N9CC[C@@H](F)C9)c8F)c7c6)cc5)CC4)ccc3C2=O)C(=O)N1 (stereo partly drawn) [Compound 64, (3R)-N-(3-{5-[4-(4-{5-[2-(2,6-dioxopiperidin-3-yl)-1-oxo-2,3-dihydro-1H-isoindol-5-yl]pentyl}piperazin-1-yl)phenyl]-1H-pyrrolo[2,3-b]pyridine-3-carbonyl}-2,4-difluorophenyl)-3-fluoropyrrolidine-1-sulfonamide] | 35 to 70% |  | 35 to 70% |  | 5 to 50 nM | < 1 nM |
| O=C1CCC(N2Cc3cc(CCCCCN4CCC(c5ccc(-c6cnc7[nH]cc(C(=O)c8c(F)ccc(NS(=O)(=O)N9CC[C@@H](F)C9)c8F)c7c6)cc5)CC4)ccc3C2=O)C(=O)N1 (stereo partly drawn) [Compound 65, (3R)-N-(3-{5-[4-(1-{5-[2-(2,6-dioxopiperidin-3-yl)-1-oxo-2,3-dihydro-1H-isoindol-5-yl]pentyl}piperidin-4-yl)phenyl]-1H-pyrrolo[2,3-b]pyridine-3-carbonyl}-2,4-difluorophenyl)-3-fluoropyrrolidine-1-sulfonamide] | 35 to 70% |  | 35 to 70% |  | 5 to 50 nM | < 1 nM |
| O=C1CCC(N2Cc3cc(N4CCC(N5CCCC56CN(c5ccc(-c7cnc8[nH]cc(C(=O)c9c(F)ccc(NS(=O)(=O)N%10CC[C@@H](F)C%10)c9F)c8c7)cc5)C6)CC4)ccc3C2=O)C(=O)N1 (stereo partly drawn) [Compound 66, (3R)-N-(3-{5-[4-(5-{1-[2-(2,6-dioxopiperidin-3-yl)-1-oxo-2,3-dihydro-1H-isoindol-5-yl]piperidin-4-yl}-2,5-diazaspiro[3.4]octan-2-yl)phenyl]-1H-pyrrolo[2,3-b]pyridine-3-carbonyl}-2,4-difluorophenyl)-3-fluoropyrrolidine-1-sulfonamide] |  |  | > 70% |  | > 500 nM | 10 to 30 nM |
| O=C1CC[C@H](N2Cc3cc([C@H](O)CCN4CCC(c5ccc(-c6cnc7[nH]cc(C(=O)c8c(F)ccc(NS(=O)(=O)N9CC[C@@H](F)C9)c8F)c7c6)cc5)CC4)ccc3C2=O)C(=O)N1 [Compound 67, (3R)—N-[3-[5-(4-[1-[(3R)-3-[2-[(3S)-2,6-dioxopiperidin-3-yl]-1-oxo-3H-isoindol-5-yl]-3-hydroxypropyl]piperidin-4-yl]phenyl)-1H-pyrrolo[2,3-b]pyridine-3-carbonyl]-2,4-difluorophenyl]-3-fluoropyrrolidine-1-sulfonamide] | 35 to 70% |  | > 70% |  | 5 to 50 nM | 1 to 10 nM |
| O=C1CC[C@@H](N2Cc3cc([C@H](O)CCN4CCC(c5ccc(-c6cnc7[nH]cc(C(=O)c8c(F)ccc(NS(=O)(=O)N9CC[C@@H](F)C9)c8F)c7c6)cc5)CC4)ccc3C2=O)C(=O)N1 [Compound 68, (3R)—N-[3-[5-(4-[1-[(3R)-3-[2-[(3R)-2,6-dioxopiperidin-3-yl]-1-oxo-3H-isoindol-5-yl]-3-hydroxypropyl]piperidin-4-yl]phenyl)-1H-pyrrolo[2,3-b]pyridine-3-carbonyl]-2,4-difluorophenyl]-3-fluoropyrrolidine-1-sulfonamide] |  |  | > 70% |  | > 500 nM | 1 to 10 nM |
| O=C1CCC(N2Cc3cc(C4CCN(CCOc5ccc(-c6cnc7[nH]cc(C(=O)c8c(F)ccc(NS(=O)(=O)N9CC[C@@H](F)C9)c8F)c7c6)cc5)CC4)ccc3C2=O)C(=O)N1 (stereo partly drawn) [Compound 69, (3R)-N-(3-{5-[4-(2-{4-[2-(2,6-dioxopiperidin-3-yl)-1-oxo-2,3-dihydro-1H-isoindol-5-yl]piperidin-1-yl}ethoxy)phenyl]-1H-pyrrolo[2,3-b]pyridine-3-carbonyl}-2,4-difluorophenyl)-3-fluoropyrrolidine-1-sulfonamide] | 35 to 70% |  | > 70% |  | 5 to 50 nM | 1 to 10 nM |
| COc1cc(N2CC(CN3CCN(c4ccc(-c5cnc6[nH]cc(C(=O)c7c(F)ccc(NS(=O)(=O)N8CC[C@@H](F)C8)c7F)c6c5)cc4)CC3)C2)cc2c1C(=O)N(C1CCC(=O)NC1=O)C2 (stereo partly drawn) [Compound 70, (3R)-N-[3-(5-{4-[4-({1-[2-(2,6-dioxopiperidin-3-yl)-7-methoxy-1-oxo-2,3-dihydro-1H-isoindol-5-yl]azetidin-3-yl}methyl)piperazin-1-yl]phenyl}-1H-pyrrolo[2,3-b]pyridine-3-carbonyl)-2,4-difluorophenyl]-3-fluoropyrrolidine-1-sulfonamide] | 35 to 70% |  | 35 to 70% |  | 5 to 50 nM | < 1 nM |
| O=C1CC[C@H](N2Cc3cc([C@@H](O)CCN4CCC(c5ccc(-c6cnc7[nH]cc(C(=O)c8c(F)ccc(NS(=O)(=O)N9CC[C@@H](F)C9)c8F)c7c6)cc5)CC4)ccc3C2=O)C(=O)N1 [Compound 71, (3R)-N-{3-[5-(4-{1-[(3S)-3-{2-[(3S)-2,6-dioxopiperidin-3-yl]-1-oxo-2,3-dihydro-1H-isoindol-5-yl}-3-hydroxypropyl]piperidin-4-yl}phenyl)-1H-pyrrolo[2,3-b]pyridine-3-carbonyl]-2,4-difluorophenyl}-3-fluoropyrrolidine-1-sulfonamide] | 35 to 70% |  | > 70% |  | 5 to 50 nM | 1 to 10 nM |
| O=C1CC[C@@H](N2Cc3cc([C@@H](O)CCN4CCC(c5ccc(-c6cnc7[nH]cc(C(=O)c8c(F)ccc(NS(=O)(=O)N9CC[C@@H](F)C9)c8F)c7c6)cc5)CC4)ccc3C2=O)C(=O)N1 [Compound 72, (3R)-N-{3-[5-(4-{1-[(3S)-3-{2-[(3R)-2,6-dioxopiperidin-3-yl]-1-oxo-2,3-dihydro-1H-isoindol-5-yl}-3-hydroxypropyl]piperidin-4-yl}phenyl)-1H-pyrrolo[2,3-b]pyridine-3-carbonyl]-2,4-difluorophenyl}-3-fluoropyrrolidine-1-sulfonamide] | < 35% |  | 35 to 70% |  | 5 to 50 nM | 1 to 10 nM |
| O=C1CC[C@@H](N2Cc3cc(C[C@@H](O)CN4CCN(c5ccc(-c6cnc7[nH]cc(C(=O)c8c(F)ccc(NS(=O)(=O)N9CC[C@@H](F)C9)c8F)c7c6)cc5)CC4)ccc3C2=O)C(=O)N1 [Compound 73, (3R)-N-{3-[5-(4-{4-[(2R)-3-{2-[(3R)-2,6-dioxopiperidin-3-yl]-1-oxo-2,3-dihydro-1H-isoindol-5-yl}-2-hydroxypropyl]piperazin-1-yl}phenyl)-1H-pyrrolo[2,3-b]pyridine-3-carbonyl]-2,4-difluorophenyl}-3-fluoropyrrolidine-1-sulfonamide] | 35 to 70% |  | > 70% |  | 5 to 50 nM | 1 to 10 nM |
